Results published in ChEMBL document CHEMBL4393686, “InCl3 mediated heteroarylation of indoles and their derivatization via CH activation strategy: Discovery of 2-(1H-indol-3-yl)-quinoxaline derivatives as a new class of PDE4B selective inhibitors for arthritis and/or multiple sclerosis” (Eur J Med Chem, 2019).
Activity calls are given as the source filed them. The calls are words filed in the database; no cut-off is given here.

Legend:
[1] = AUC (0 to infinity) in BALB/c mouse at 10 mg/kg, iv measured for 24 hrs post dose by LC-MS/MS analysis; format: ADME, organism-based; design: dose 10 mg/kg, time infinity, route intravenous; conditions: in vivo
[2] = target: T1, 3',5'-cyclic-AMP phosphodiesterase 4B (Homo sapiens, UniProt Q07343); assay: Inhibition of recombinant His-tagged human PDE4B expressed in Sf9 cells using cAMP as substrate preincubated with enzyme for 15 mins followed by substrate addition and incubated for 1 hr by PDELight HTS cAMP phosphodiesterase Kit based luminometry
[3] = target: T1, 3',5'-cyclic-AMP phosphodiesterase 4B; assay: Inhibition of human recombinant His-tagged PDE4B expressed in Sf9 cells using cAMP as substrate at 10 uM preincubated with enzyme for 15 mins followed by substrate addition and incubated for 1 hr by PDELight HTS cAMP phosphodiesterase Kit based luminometry relative to control
[4] = species: Homo sapiens; assay: Selectivity index, ratio of IC50 for PDE4D2 (unknown origin) to IC50 for recombinant His-tagged human PDE4B expressed in sf9 cells using cAMP as substrate by PDELight HTS cAMP phosphodiesterase Kit based luminometry
[5] = target: PDE4C (Homo sapiens, UniProt Q08493); assay: Inhibition of PDE4C (unknown origin) at 100 uM using cAMP as substrate preincubated with enzyme for 15 mins followed by substrate addition and incubated for 1 hr by PDELight HTS cAMP phosphodiesterase Kit based luminometry relative to control; conditions: probe cAMP
[6] = test system: RAW264.7; assay: Antiinflammatory activity in mouse RAW264.7 cells assessed as inhibition of LPS-induced iNOS expression preincubated for 30 mins followed by LPS stimulation and incubated for 10 hrs by immunoblotting analysis; format: functional, cell-based
[7] = test system: RAW264.7; assay: Antiinflammatory activity in mouse RAW264.7 cells assessed as inhibition of LPS-induced TNFalpha mRNA expression preincubated for 30 mins followed by LPS stimulation and incubated for 10 hrs by qPCR analysis; format: functional, cell-based
[8] = target: Dual specificity calcium/calmodulin-dependent 3',5'-cyclic nucleotide phosphodiesterase 1A (Homo sapiens) (UniProt P54750); assay: Inhibition of recombinant N-terminal GST-tagged full-length human PDE1A1 expressed in Sf9 cells using FAM-cAMP as substrate at 10 uM incubated for 60 mins by fluorescence plate reader analysis
[9] = target: Dual specificity calcium/calmodulin-dependent 3',5'-cyclic nucleotide phosphodiesterase 1B (Homo sapiens) (UniProt Q01064); assay: Inhibition of recombinant N-terminal GST tagged full length human PDE1B expressed in Sf9 cells using FAM-cAMP as substrate at 10 uM incubated for 60 mins by fluorescence plate reader analysis
[10] = target: cGMP-dependent 3',5'-cyclic phosphodiesterase (Homo sapiens) (UniProt O00408); assay: Inhibition of recombinant N-terminal-GST-Th-tagged full length human PDE2A1 expressed in Sf9 cells using FAM-cAMP as substrate at 10 uM incubated for 60 mins by fluorescence plate reader analysis
[11] = target: cGMP-inhibited 3',5'-cyclic phosphodiesterase 3A (Homo sapiens) (UniProt Q14432); assay: Inhibition of recombinant PDE3A (unknown origin) using FAM-cAMP as substrate at 10 uM incubated for 60 mins by fluorescence plate reader analysis
[12] = target: cGMP-inhibited 3',5'-cyclic phosphodiesterase 3B (Homo sapiens) (UniProt Q13370); assay: Inhibition of recombinant N-terminal GST-tagged human PDE3B (592-end aa) expressed in Sf9 cells using FAM-cAMP as substrate at 10 uM incubated for 60 mins by fluorescence plate reader analysis
[13] = Inhibition of recombinant N-terminal GST-tagged full length human PDE4A1A expressed in Sf9 cells using cAMP as substrate at 10 uM incubated for 60 mins by fluorescence plate reader analysis
[14] = target: High affinity 3',5'-cyclic-AMP phosphodiesterase 7A (Homo sapiens) (UniProt Q13946); assay: Inhibition of recombinant N-terminal GST tagged human PDE7A1 (122-end aa) expressed in Sf9 cells using FAM-cAMP as substrate at 10 uM incubated for 60 mins by fluorescence plate reader analysis
[15] = target: High affinity cAMP-specific and IBMX-insensitive 3',5'-cyclic phosphodiesterase 8A (Homo sapiens) (UniProt O60658); assay: Inhibition of recombinant N-terminal GST-tagged full length human PDE8A1 expressed in Sf9 cells using FAM-cAMP as substrate at 10 uM incubated for 60 mins by fluorescence plate reader analysis
[16] = target: High affinity cGMP-specific 3',5'-cyclic phosphodiesterase 9A (Homo sapiens) (UniProt O76083); assay: Inhibition of recombinant N-terminal GST-tagged full length human PDE9A2 expressed in Sf9 cells using F AM-cGMP as substrate at 10 uM incubated for 60 mins by fluorescence plate reader analysis
[17] = target: cAMP and cAMP-inhibited cGMP 3',5'-cyclic phosphodiesterase 10A (Homo sapiens) (UniProt Q9Y233); assay: Inhibition of recombinant N-terminal GST-tagged full length human PDE10A2 expressed in Sf9 cells using FAM-cAMP as substrate at 10 uM incubated for 60 mins by fluorescence plate reader analysis
[18] = target: Dual 3',5'-cyclic-AMP and -GMP phosphodiesterase 11A (Homo sapiens) (UniProt Q9HCR9); assay: Inhibition of recombinant N-terminal GST-tagged full length human PDE11A4 expressed in Sf9 cells using FAM-cAMP as substrate at 10 uM incubated for 60 mins by fluorescence plate reader analysis
[19] = Half life in rat liver microsomes at 5 uM by LC-MS/MS analysis; format: ADME, Microsome
[20] = Cmax in BALB/c mouse at 10 mg/kg, iv measured for 24 hrs post dose by LC-MS/MS analysis; format: ADME, organism-based; design: dose 10 mg/kg, route intravenous; conditions: in vivo
[21] = Tmax in BALB/c mouse at 10 mg/kg, iv measured for 24 hrs post dose by LC-MS/MS analysis; format: ADME, organism-based; conditions: in vivo
[22] = Half life in BALB/c mouse at 10 mg/kg, iv measured for 24 hrs post dose by LC-MS/MS analysis; format: ADME, organism-based; conditions: in vivo
[23] = MRTlast in BALB/c mouse at 10 mg/kg, iv measured for 24 hrs post dose by LC-MS/MS analysis; format: ADME, organism-based; conditions: in vivo
[24] = test system: Rattus norvegicus; assay: Antiarthritic activity in complete Freund's adjuvant-induced Wistar rat arthritis model assessed as reduction in synovial inflammation at 30 mg/kg, ip administered from 11th day to 20th day by H&E staining based microscopic analysis; format: functional, organism-based
[25] = test system: Rattus norvegicus; assay: Antiinflammatory activity in complete Freund's adjuvant-induced Wistar rat arthritis model assessed as reduction in IL1beta expression in serum at 30 mg/kg, ip administered from 11th day to 20th day by ELISA; format: functional, organism-based
[26] = Cardiotoxicity in zebrafish embryos assessed as heart rate at 1 to 100 uM; format: toxicity, Danio rerio
[27] = Toxicity in zebrafish embryos assessed as teratogenicity score at 1 to 100 uM incubated for 5 dpf; design: species or system Danio rerio; conditions: in vivo
[28] = Hepatotoxicity in zebrafish embryos assessed as liver degeneration at 1 to 100 uM incubated for 7 dpf; format: toxicity, Danio rerio; conditions: in vivo
[29] = Toxicity in zebrafish embryo assessed as effect in somite formation at 1 to 100 uM; design: species or system Danio rerio; conditions: in vivo
[30] = Toxicity in zebrafish embryo assessed as effect in heart formation at 1 to 100 uM; format: tissue-based, Danio rerio; conditions: in vivo
[31] = Toxicity in zebrafish embryo assessed as effect in swim bladder formation at 1 to 100 uM; design: species or system Danio rerio; conditions: in vivo

T1 sequence (Q07343 whole entry): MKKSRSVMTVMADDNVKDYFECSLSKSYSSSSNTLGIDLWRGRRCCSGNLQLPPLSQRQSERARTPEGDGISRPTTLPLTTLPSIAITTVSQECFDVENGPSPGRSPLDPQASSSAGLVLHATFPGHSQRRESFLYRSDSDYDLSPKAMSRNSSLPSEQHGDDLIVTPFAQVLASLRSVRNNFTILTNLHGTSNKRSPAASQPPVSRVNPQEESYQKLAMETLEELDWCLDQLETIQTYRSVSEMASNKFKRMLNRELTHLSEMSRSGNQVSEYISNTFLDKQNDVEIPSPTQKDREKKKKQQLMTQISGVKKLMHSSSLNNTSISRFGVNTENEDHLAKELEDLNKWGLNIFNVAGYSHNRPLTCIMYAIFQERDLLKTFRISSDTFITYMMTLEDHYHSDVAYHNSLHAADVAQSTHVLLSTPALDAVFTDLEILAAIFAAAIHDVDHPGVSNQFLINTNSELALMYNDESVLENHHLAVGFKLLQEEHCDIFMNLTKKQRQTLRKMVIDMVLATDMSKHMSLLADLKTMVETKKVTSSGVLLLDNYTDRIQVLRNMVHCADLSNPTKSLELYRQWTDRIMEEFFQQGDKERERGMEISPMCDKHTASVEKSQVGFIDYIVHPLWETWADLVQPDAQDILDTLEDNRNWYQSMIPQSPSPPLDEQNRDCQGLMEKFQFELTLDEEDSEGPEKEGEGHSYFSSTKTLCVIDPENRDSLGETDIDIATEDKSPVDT
Chain of High affinity cAMP-specific and IBMX-insensitive 3',5'-cyclic phosphodiesterase 8A (Homo sapiens) (O60658 whole entry): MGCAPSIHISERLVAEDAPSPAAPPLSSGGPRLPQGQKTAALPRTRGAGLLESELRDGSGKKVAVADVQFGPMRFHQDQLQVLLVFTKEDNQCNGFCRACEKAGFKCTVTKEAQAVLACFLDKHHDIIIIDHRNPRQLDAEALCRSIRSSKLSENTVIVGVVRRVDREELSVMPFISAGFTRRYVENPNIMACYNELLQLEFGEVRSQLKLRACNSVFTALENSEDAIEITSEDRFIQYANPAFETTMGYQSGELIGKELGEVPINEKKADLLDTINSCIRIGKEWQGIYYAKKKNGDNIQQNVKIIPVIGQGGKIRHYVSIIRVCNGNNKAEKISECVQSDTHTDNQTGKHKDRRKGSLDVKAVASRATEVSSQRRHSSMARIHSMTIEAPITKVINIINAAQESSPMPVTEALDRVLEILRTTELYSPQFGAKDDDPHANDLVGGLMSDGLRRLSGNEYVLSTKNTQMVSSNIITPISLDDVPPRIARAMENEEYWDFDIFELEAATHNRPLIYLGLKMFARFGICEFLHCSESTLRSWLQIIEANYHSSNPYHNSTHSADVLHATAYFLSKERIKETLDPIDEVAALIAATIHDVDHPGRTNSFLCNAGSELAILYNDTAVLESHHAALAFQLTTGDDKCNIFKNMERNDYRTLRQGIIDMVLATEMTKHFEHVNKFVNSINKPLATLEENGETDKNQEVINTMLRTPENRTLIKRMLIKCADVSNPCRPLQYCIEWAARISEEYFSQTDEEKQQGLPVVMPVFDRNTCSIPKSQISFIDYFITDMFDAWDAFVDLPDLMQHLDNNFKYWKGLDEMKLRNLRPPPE
Chain of cGMP-inhibited 3',5'-cyclic phosphodiesterase 3B (Homo sapiens) (Q13370 whole entry, looked up): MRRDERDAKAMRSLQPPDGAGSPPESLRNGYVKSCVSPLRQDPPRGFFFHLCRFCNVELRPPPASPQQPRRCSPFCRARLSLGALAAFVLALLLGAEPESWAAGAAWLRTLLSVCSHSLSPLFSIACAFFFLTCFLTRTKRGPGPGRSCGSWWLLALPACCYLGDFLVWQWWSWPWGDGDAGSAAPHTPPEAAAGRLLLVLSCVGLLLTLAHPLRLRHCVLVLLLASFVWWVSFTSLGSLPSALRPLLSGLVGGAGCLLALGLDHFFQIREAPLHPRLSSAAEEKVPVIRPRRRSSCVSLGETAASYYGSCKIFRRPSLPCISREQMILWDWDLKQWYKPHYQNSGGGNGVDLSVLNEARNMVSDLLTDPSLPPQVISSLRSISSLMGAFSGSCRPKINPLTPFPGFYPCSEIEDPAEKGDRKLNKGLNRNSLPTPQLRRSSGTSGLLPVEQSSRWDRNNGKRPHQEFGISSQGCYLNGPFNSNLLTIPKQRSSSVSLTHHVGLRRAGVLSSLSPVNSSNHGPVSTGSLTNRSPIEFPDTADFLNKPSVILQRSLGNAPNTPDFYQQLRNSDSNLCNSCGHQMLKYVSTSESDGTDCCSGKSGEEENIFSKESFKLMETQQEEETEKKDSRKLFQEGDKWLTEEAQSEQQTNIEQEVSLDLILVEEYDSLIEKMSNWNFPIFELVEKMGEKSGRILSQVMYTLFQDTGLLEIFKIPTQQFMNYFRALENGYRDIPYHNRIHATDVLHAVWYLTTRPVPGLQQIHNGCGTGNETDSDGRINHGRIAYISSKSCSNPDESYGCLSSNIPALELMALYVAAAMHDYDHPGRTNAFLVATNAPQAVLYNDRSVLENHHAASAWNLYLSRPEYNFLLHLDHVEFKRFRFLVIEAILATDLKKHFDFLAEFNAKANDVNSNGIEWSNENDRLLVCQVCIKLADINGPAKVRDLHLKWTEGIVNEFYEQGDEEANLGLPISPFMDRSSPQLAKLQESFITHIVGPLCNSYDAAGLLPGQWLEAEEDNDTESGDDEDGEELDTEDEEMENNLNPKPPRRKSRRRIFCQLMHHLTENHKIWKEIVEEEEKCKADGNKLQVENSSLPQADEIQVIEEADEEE
Chain of PDE4C (Q08493 whole entry): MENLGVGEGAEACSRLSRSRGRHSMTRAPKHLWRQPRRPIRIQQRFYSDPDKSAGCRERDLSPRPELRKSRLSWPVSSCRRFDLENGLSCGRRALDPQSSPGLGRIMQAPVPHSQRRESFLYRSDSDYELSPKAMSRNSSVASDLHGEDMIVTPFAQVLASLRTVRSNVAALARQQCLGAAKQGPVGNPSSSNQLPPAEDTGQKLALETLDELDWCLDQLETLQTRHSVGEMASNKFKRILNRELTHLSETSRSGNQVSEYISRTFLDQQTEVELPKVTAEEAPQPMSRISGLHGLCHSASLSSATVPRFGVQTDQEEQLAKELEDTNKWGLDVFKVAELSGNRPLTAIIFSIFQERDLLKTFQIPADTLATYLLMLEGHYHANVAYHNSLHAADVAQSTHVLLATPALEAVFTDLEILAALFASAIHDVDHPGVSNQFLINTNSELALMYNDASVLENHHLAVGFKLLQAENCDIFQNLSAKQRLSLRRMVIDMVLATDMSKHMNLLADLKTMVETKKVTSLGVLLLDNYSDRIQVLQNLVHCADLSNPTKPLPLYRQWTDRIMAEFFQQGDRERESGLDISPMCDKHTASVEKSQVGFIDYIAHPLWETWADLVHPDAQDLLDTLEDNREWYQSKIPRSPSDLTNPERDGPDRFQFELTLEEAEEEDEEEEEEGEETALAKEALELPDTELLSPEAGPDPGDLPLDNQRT
Chain of High affinity cGMP-specific 3',5'-cyclic phosphodiesterase 9A (Homo sapiens) (O76083 whole entry): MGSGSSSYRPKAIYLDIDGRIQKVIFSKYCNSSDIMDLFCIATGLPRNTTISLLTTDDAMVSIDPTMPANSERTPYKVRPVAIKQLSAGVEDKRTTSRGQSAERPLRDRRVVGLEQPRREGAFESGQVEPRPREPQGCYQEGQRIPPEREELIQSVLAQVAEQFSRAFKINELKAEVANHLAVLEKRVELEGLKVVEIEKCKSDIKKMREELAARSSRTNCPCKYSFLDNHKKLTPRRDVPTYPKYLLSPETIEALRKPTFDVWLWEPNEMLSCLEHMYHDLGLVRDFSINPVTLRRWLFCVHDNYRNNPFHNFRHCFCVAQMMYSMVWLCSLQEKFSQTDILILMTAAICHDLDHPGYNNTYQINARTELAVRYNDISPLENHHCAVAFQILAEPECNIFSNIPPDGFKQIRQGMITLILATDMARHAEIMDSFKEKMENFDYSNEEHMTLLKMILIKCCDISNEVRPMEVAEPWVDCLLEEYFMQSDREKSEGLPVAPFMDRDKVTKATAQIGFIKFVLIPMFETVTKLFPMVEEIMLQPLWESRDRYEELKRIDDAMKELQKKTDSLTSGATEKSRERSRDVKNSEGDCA
Chain of Dual 3',5'-cyclic-AMP and -GMP phosphodiesterase 11A (Homo sapiens) (Q9HCR9 whole entry, looked up): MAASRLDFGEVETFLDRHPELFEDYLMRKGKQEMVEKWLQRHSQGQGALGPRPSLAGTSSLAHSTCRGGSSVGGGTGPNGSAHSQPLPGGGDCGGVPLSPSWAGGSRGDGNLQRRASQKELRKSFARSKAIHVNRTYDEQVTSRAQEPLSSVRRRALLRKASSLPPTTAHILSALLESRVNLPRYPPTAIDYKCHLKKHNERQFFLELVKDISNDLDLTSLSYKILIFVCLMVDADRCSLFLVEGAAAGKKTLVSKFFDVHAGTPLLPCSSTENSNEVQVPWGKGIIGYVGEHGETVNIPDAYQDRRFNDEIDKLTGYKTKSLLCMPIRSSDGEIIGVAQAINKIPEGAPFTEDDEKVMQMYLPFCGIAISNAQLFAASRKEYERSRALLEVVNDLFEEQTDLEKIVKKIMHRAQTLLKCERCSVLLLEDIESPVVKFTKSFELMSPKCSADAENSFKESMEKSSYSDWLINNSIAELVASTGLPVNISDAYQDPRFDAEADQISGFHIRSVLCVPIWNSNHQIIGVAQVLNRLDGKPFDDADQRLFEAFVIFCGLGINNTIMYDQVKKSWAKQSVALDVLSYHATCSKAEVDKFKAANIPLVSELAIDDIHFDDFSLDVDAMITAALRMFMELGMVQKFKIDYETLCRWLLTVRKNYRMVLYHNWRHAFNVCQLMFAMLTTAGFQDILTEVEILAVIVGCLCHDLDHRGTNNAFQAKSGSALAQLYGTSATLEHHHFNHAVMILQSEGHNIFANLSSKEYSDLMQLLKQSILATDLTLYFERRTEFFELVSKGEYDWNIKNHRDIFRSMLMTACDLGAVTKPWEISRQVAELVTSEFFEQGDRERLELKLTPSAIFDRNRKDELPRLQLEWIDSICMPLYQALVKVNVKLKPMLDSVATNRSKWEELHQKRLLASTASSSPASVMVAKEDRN

- AUC(0-inf) [1]: 1160 ng·h/mL
- IC50 [2]: 390 nM
- inhibition [3]: > 75%
- inhibition at 1 h, 100 µM [5]: 20 to 30%
- inhibition [8]: 12%
- inhibition [9]: 23%
- inhibition [10]: 3%
- inhibition [11]: 1%
- inhibition [12]: 1%
- inhibition [14]: 3%
- inhibition [15]: 3%
- inhibition [16]: 9%
- inhibition [17]: 15%
- inhibition [18]: 7%
- half-life at 5 µM [19]: 52.5 min
- Cmax [20]: 2850 ng/mL
- Tmax [21]: 4.8 min
- half-life [22]: 38.4 min
- MRT last at 24 h [23]: 21.6 min
SMILES: C=CCn1cc(-c2nc3ccccc3nc2Cl)c2cc(OC)ccc21
- Ratio IC50 [4]: 27
- inhibition [6]: Active
- inhibition [7]: Active
- inhibition [13]: 40%
- inhibition [24]: Active
- inhibition [25]: Active
- Activity [26]: Non-Toxic
- Activity [27]: Non-Toxic
- Activity [28]: Non-Toxic
- Activity [29]: Non-Toxic
- Activity [30]: Non-Toxic
- Activity [31]: Non-Toxic
